Each compound was assayed against Platelet-activating factor receptor (Mus musculus) (UniProt Q62035) (assay: Ability to protect mice from lethal effects of an injection of PAF in vivo.). Conditions: Mus sp.
Format: functional, organism-based

Platelet-activating factor receptor (Mus musculus), sequence (Q62035 whole entry): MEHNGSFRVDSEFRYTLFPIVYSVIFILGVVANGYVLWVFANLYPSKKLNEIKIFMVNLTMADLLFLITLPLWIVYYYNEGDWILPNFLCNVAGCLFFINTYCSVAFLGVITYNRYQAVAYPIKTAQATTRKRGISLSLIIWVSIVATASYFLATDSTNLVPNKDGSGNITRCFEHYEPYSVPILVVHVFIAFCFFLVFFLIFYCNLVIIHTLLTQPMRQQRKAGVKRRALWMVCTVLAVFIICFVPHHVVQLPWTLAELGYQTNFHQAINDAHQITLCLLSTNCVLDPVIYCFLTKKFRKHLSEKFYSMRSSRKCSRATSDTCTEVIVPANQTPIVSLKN

Compound | ED50
CCOC(=O)C1=C(c2ccc(-n3c(C)nc4cnccc43)cc2)N=C(C)/C(=C(/O)OCCOC)C1c1ccccc1Cl (stereo not given) | 0.16 mg/kg
CCOC(=O)C1=C(c2ccc(-n3c(C)nc4cnccc43)cc2)NC(C)=C(C(=O)Nc2ccccn2)C1c1cccnc1Cl (stereo not given) | 13 mg/kg
CCOC(=O)C1=C(c2ccc(-n3c(C)nc4cnccc43)cc2)N=C(C)/C(=C(/O)OC2CCCCC2)C1c1ccccc1Cl (stereo not given) | 4.7 mg/kg
CCOC(=O)C1=C(c2ccc(-n3c(C)nc(C)c3C)cc2)NC(C)=C(C(=O)Nc2ccccn2)C1c1ccccc1Cl (stereo not given) | 10.5 mg/kg
Cc1nnc2n1-c1sc(CCC(=O)N3CCOCC3)cc1C(c1ccccc1Cl)=NC2 | 2.03 mg/kg
CCOC(=O)C1=C(c2ccc(-n3c(C)nc4cnccc43)cc2)N=C(C)/C(=C(/O)OC)C1c1ccccc1Cl (stereo not given) | 1.5 mg/kg
CCOC(=O)C1=C(c2ccc(-n3c(C)nnc3C)cc2)NC(C)=C(C(=O)Nc2ccccn2)C1c1ccccc1Cl (stereo not given) | 34 mg/kg
CCOC(=O)C1=C(c2ccc(-n3c(C)nc4cnccc43)cc2)N=C(C)/C(=C(/O)OCc2ccccc2)C1c1ccccc1Cl (stereo not given) | 2 mg/kg
CCOC(=O)C1=C(c2ccc(-c3c(C)nc4sccn34)cc2)NC(C)=C(C(=O)Nc2ccccn2)C1c1ccccc1Cl (stereo not given) | 5.4 mg/kg
CCOC(=O)C1=C(c2ccc(-c3sc(C)nc3C)cc2)NC(C)=C(C(=O)Nc2ccccn2)C1c1ccccc1Cl (stereo not given) | 7.4 mg/kg
CCOC(=O)C1=C(c2ccc(-n3c(C)nc4cnccc43)cc2)N=C(C)/C(=C(/O)OC(C)(C)C)C1c1ccccc1Cl (stereo not given) | 2 mg/kg
CCOC(=O)C1=C(c2ccc(-n3c(C)nc4c(C)nc(C)cc43)cc2)NC(C)=C(C(=O)Nc2ccccn2)C1c1ccccc1Cl (stereo not given) | 0.3 mg/kg
CCOC(=O)C1=C(c2ccc(-n3c(C)nc4cccnc43)cc2)NC(C)=C(C(=O)Nc2ccccn2)C1c1ccccc1Cl (stereo not given) | 23 mg/kg
CCOC(=O)C1=C(c2ccc(-n3c(C)nc4cnccc43)cc2)NC(C)=C(C(N)=O)C1c1ccccc1Cl (stereo not given) | 1 mg/kg
CCOC(=O)C1=C(c2ccc(-c3c(C)nc4ccccn34)cc2)NC(C)=C(C(=O)Nc2ccccn2)C1c1ccccc1Cl (stereo not given) | 92 mg/kg
CCOC(=O)C1=C(c2ccc(-n3c(C)nc4cnccc43)cc2)NC(C)=C(C(=O)Nc2ccccn2)C1c1ccc(C#N)cc1 (stereo not given) | 1.2 mg/kg
CCOC(=O)C1=C(c2ccc(-n3c(C)nc4cnccc43)cc2)NC(C)=C(C(=O)Nc2ccccn2)C1c1ccccc1OC(F)(F)F (stereo not given) | 0.2 mg/kg
CCOC(=O)C1=C(c2ccc(-n3c(CC)nc4cnccc43)cc2)NC(C)=C(C(=O)Nc2ccccn2)C1c1ccccc1Cl (stereo not given) | 10.5 mg/kg
CCOC(=O)C1=C(c2ccc(-n3c(C)nc4cnccc43)cc2)NC(C)=C(C(=O)Nc2ccccn2)C1c1csc2ccccc12 (stereo not given) | 0.6 mg/kg
CCOC(=O)C1=C(c2ccc(-n3c(C)nc4cnccc43)cc2)NC(C)=C(C(=O)O)C1c1ccccc1Cl (stereo not given) | 4.7 mg/kg
CCOC(=O)C1=C(c2ccc(-n3c(C)nc4cnccc43)cc2)NC(C)=C(C(=O)NC(C)(C)C)C1c1ccccc1Cl (stereo not given) | 2.1 mg/kg
CCOC(=O)C1=C(c2ccc(-n3c(C)nc4ccncc43)cc2)NC(C)=C(C(=O)Nc2ccccn2)C1c1ccccc1Cl (stereo not given) | 16 mg/kg
CCOC(=O)C1=C(c2ccc(-n3c(C(F)(F)F)nc4cnccc43)cc2)NC(C)=C(C(=O)Nc2ccccn2)C1c1ccccc1Cl (stereo not given) | 25 mg/kg
CCOC(=O)C1=C(c2ccc(-n3c(C)nc4cnccc43)cc2)NC(C)=C(C(=O)Nc2ccccn2)C1c1cccc2c1OCO2 (stereo not given) | 0.5 mg/kg
CCOC(=O)C1=C(c2ccc(-n3ccnc3C)cc2)NC(C)=C(C(=O)Nc2ccccn2)C1c1ccccc1Cl (stereo not given) | 22 mg/kg
CCOC(=O)C1=C(c2ccc(-n3c(C)nc4cnccc43)cc2)NC(C)=C(C(=O)Nc2ccccn2)C1c1ccccn1 (stereo not given) | 4.1 mg/kg
CCOC(=O)C1=C(c2ccc(-n3cc(C)nc3C)cc2)NC(C)=C(C(=O)Nc2ccccn2)C1c1ccccc1Cl (stereo not given) | 3 mg/kg
CCOC(=O)C1=C(c2ccc(-n3c(C)nc4cnccc43)cc2)NC(C)=C(C(=O)Nc2ccccn2)C1c1cccnc1 (stereo not given) | 16 mg/kg
CCOC(=O)C1=C(c2ccc(-c3cccnc3C)cc2)NC(C)=C(C(=O)Nc2ccccn2)C1c1ccccc1Cl (stereo not given) | 3.7 mg/kg
CCOC(=O)C1=C(c2ccc(-n3c(C)nc4cnccc43)cc2)NC(C)=C(C(=O)Nc2ccccn2)C1c1ccccc1Cl (stereo not given) | 0.26 mg/kg

Source: ChEMBL document CHEMBL1125530, “1,4-Dihydropyridines as antagonists of platelet activating factor. 1. Synthesis and structure-activity relationships of 2-(4-heterocyclyl)phenyl derivatives” (J Med Chem, 1992)
